# Target: ROCK2 (Homo sapiens, UniProt O75116)
# Assay: ROCK2 kinase inhibition assay (Caliper LABCHIP, FITC peptide substrate)
# Assay type: biochemical
# Conditions: 5 μM ATP, 1.5 μM peptide substrate; value ranges
# In short: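 Dose-response curves gave IC50 from inhibition of peptide phosphorylation, measured by LabChip separation after EDTA stop. Reactions used 1.5 μM FITC-labelled peptide, 5 μM ATP, 20 mM HEPES pH 7.5 with MgCl2, Brij-35, DTT, and under 2% DMSO.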
# ROCK2, sequence (O75116 whole entry, species assumed): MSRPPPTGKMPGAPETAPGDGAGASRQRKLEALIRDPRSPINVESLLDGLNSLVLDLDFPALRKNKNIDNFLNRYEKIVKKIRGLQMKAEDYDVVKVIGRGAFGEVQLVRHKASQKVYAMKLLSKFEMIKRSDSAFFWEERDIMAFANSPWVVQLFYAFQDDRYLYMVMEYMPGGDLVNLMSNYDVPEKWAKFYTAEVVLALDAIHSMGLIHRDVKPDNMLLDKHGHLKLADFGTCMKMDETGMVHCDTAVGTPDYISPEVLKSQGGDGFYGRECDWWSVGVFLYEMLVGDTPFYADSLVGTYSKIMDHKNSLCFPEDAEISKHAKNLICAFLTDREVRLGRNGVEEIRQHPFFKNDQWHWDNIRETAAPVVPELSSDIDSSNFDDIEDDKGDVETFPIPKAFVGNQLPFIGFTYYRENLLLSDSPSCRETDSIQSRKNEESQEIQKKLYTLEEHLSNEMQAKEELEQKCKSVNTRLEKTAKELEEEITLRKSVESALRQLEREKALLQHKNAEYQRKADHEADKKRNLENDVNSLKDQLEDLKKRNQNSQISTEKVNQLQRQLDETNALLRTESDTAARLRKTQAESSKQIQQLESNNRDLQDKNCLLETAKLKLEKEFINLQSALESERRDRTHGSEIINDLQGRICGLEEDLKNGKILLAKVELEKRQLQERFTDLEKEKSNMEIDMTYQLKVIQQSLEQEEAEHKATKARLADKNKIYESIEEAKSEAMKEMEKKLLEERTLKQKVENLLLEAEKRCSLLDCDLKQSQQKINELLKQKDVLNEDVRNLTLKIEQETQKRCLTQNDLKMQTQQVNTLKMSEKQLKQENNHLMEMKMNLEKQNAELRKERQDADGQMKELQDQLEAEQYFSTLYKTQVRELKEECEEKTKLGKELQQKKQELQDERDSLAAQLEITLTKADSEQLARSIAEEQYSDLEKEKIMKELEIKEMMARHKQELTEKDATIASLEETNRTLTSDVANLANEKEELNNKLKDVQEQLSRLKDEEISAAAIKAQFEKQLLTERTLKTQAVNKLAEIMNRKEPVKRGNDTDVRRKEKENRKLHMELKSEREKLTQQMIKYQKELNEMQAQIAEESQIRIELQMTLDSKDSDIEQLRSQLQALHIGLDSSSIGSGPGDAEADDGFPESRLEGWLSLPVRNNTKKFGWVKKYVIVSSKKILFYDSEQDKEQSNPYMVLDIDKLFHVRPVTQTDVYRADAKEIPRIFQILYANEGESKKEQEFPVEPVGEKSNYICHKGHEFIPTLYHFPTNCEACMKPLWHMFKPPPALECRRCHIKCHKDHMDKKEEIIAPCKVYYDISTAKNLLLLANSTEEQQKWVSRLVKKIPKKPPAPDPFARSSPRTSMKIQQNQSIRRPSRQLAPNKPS
row,SMILES,IC50
1,"COc1cc(F)ccc1Cn1ccn(-c2ccc(-c3cn[nH]c3)c(OC)n2)c1=O [Example 383, 1-(4-fluoro-2-methoxybenzyl)-3-(6-methoxy-5-(1H-pyrazol-4-yl)pyridin-2-yl)-1H-imidazol-2(3H)-one]",20.1 to 200 nM
2,"Cc1cc(F)ccc1Cn1ccn(-c2ccc(-c3cn[nH]c3)cc2)c1=O [Example 403, 1-(4-(1H-pyrazol-4-yl)phenyl)-3-(4-fluoro-2-methylbenzyl)-1H-imidazol-2(3H)-one]",20.1 to 200 nM
3,"Cc1ccc(F)cc1Cn1ccn(-c2ccc(-c3cn[nH]c3)cc2)c1=O [Example 404, 1-(4-(1H-pyrazol-4-yl)phenyl)-3-(5-fluoro-2-methylbenzyl)-1H-imidazol-2(3H)-one]",20.1 to 200 nM
4,"COc1c(F)cccc1Cn1ccn(-c2ccc(-c3cn[nH]c3)cc2)c1=O [Example 405, 1-(4-(1H-pyrazol-4-yl)phenyl)-3-(3-fluoro-2-methoxybenzyl)-1H-imidazol-2(3H)-one]",20.1 to 200 nM
5,"COc1cc(Cn2ccn(-c3ccc(-c4cn[nH]c4)cc3)c2=O)ccc1F [Example 407, 1-(4-(1H-pyrazol-4-yl)phenyl)-3-(4-fluoro-3-methoxybenzyl)-1H-imidazol-2(3H)-one]",20.1 to 200 nM
6,"O=c1n(Cc2cc(F)ccc2F)ccn1-c1ccc(-c2cn[nH]c2)cc1 [Example 408, 1-(4-(1H-pyrazol-4-yl)phenyl)-3-(2,5-difluorobenzyl)-1H-imidazol-2(3H)-one]",20.1 to 200 nM
7,"O=c1n(Cc2ccc(F)cc2F)ccn1-c1ccc(-c2cn[nH]c2)cc1 [Example 409, 1-(4-(1H-pyrazol-4-yl)phenyl)-3-(2,4-difluorobenzyl)-1H-imidazol-2(3H)-one]",20.1 to 200 nM
8,"O=c1n(Cc2cccnc2)ccn1-c1ccc(-c2cn[nH]c2)cc1 [Example 410, 1-(4-(1H-pyrazol-4-yl)phenyl)-3-(pyridin-3-ylmethyl)-1H-imidazol-2(3H)-one]",20.1 to 200 nM
9,"COc1cc(F)ccc1Cn1ccn(-c2ccc(-c3cn[nH]c3)cc2)c1=O [Example 412, 1-(4-(1H-pyrazol-4-yl)phenyl)-3-(4-fluoro-2-methoxybenzyl)-1H-imidazol-2(3H)-one]",200 to 2000 nM
10,"COc1nc(-n2ccn(Cc3ccc(F)cc3F)c2=O)ccc1-c1cn[nH]c1 [Example 414, 1-(2,4-difluorobenzyl)-3-(6-methoxy-5-(1H-pyrazol-4-yl)pyridin-2-yl)-1H-imidazol-2(3H)-one]",20.1 to 200 nM
11,"COc1nc(-n2ccn(Cc3cccc(F)c3OC)c2=O)ccc1-c1cn[nH]c1 [Example 416, 1-(3-fluoro-2-methoxybenzyl)-3-(6-methoxy-5-(1H-pyrazol-4-yl)pyridin-2-yl)-1H-imidazol-2(3H)-one]",2.1 to 20 nM
12,"COc1nc(-n2ccn(Cc3cccnc3)c2=O)ccc1-c1cn[nH]c1 [Example 417, 1-(6-methoxy-5-(1H-pyrazol-4-yl)pyridin-2-yl)-3-(pyridin-3-ylmethyl)-1H-imidazol-2(3H)-one]",2.1 to 20 nM
13,"COc1nc(-n2ccn(CC3CCCO3)c2=O)ccc1-c1cn[nH]c1 (stereo not shown) [Example 418, 1-(6-methoxy-5-(1H-pyrazol-4-yl)pyridin-2-yl)-3-((tetrahydrofuran-2-yl)methyl)-1H-imidazol-2(3H)-one]",20.1 to 200 nM
14,"COc1nc(-n2ccn(CC3CCCCC3)c2=O)ccc1-c1cn[nH]c1 [Example 420, 1-(cyclohexylmethyl)-3-(6-methoxy-5-(1H-pyrazol-4-yl)pyridin-2-yl)-1H-imidazol-2(3H)-one]",20.1 to 200 nM
15,"COc1cccc(CN2CCN(c3cc(OC)c(-c4cn[nH]c4)cn3)C2=O)c1 [Example 423, 1-(4-Methoxy-5-(1H-pyrazol-4-yl)pyridin-2-yl)-3-(3-methoxybenzyl)imidazolidin-2-one]",2.1 to 20 nM
16,"COc1ccc(F)cc1CN1CCN(c2ccc(-c3cn[nH]c3)c(F)c2)C1=O [Example 424, 1-(5-fluoro-2-methoxybenzyl)-3-(3-fluoro-4-(1H-pyrazol-4-yl)phenyl)imidazolidin-2-one]",2.1 to 20 nM
17,"COc1cc(F)cc(CN2CCN(c3ccc(-c4cn[nH]c4)c(F)c3)C2=O)c1 [Example 425, 1-(3-fluoro-4-(1H-pyrazol-4-yl)phenyl)-3-(3-fluoro-5-methoxybenzyl)imidazolidin-2-one]",< 2 nM
18,"COc1cc(F)cc(CN2CCN(c3ccc(-c4cn[nH]c4)cn3)C2=O)c1 [Example 428, 1-(5-(1H-pyrazol-4-yl)pyridin-2-yl)-3-(3-fluoro-5-methoxybenzyl)imidazolidin-2-one]",2.1 to 20 nM
19,"COc1cc(CN2CCN(c3ccc(-c4cn[nH]c4)cn3)C2=O)ccc1F [Example 429, 1-(5-(1H-pyrazol-4-yl)pyridin-2-yl)-3-(4-fluoro-3-methoxybenzyl)imidazolidin-2-one]",2.1 to 20 nM
20,"COc1cccc(F)c1CN1CCN(c2ccc(-c3cn[nH]c3)c(F)c2)C1=O [Example 431, 1-(3-fluoro-4-(1H-pyrazol-4-yl)phenyl)-3-(2-fluoro-6-methoxybenzyl)imidazolidin-2-one]",20.1 to 200 nM
21,"COc1cccc(CN2CCN(c3ccc(-c4cn[nH]c4)c(F)c3)C2=O)c1F [Example 433, 1-(2-fluoro-3-methoxybenzyl)-3-(3-fluoro-4-(1H-pyrazol-4-yl)phenyl)imidazolidin-2-one]",20.1 to 200 nM
22,"COc1cc(F)cc(CN2CCN(c3ccc(-c4cn[nH]c4)nc3)C2=O)c1 [Example 437, 1-(6-(1H-pyrazol-4-yl)pyridin-3-yl)-3-(3-fluoro-5-methoxybenzyl)imidazolidin-2-one]",20.1 to 200 nM
23,"O=C1N(Cc2cccc(OCC3CC3)c2)CCN1c1ccc(-c2cn[nH]c2)cn1 [Example 438, 1-(5-(1H-pyrazol-4-yl)pyridin-2-yl)-3-(3-(cyclopropylmethoxy)benzyl)imidazolidin-2-one]",20.1 to 200 nM
24,"COc1cccc(CN2CCN(c3ccc(-c4cn[nH]c4)nc3)C2=O)c1 [Example 439, 1-(6-(1H-pyrazol-4-yl)pyridin-3-yl)-3-(3-methoxybenzyl)imidazolidin-2-one]",2.1 to 20 nM
25,"COc1cc(CN2CCN(c3ccc(-c4cn[nH]c4)nc3)C2=O)ccc1F [Example 440, 1-(6-(1H-pyrazol-4-yl)pyridin-3-yl)-3-(4-fluoro-3-methoxybenzyl)imidazolidin-2-one]",20.1 to 200 nM
26,"O=C1N(Cc2cccc(OCC3CC3)c2)CCN1c1ccc(-c2cn[nH]c2)nc1 [Example 441, 1-(6-(1H-pyrazol-4-yl)pyridin-3-yl)-3-(3-(cyclopropylmethoxy)benzyl)imidazolidin-2-one]",200 to 2000 nM
27,"COc1cccc(C(CO)N2CCN(c3ccc(-c4cn[nH]c4)cn3)C2=O)c1 (stereo not shown) [Example 442, 1-(5-(1H-pyrazol-4-yl)pyridin-2-yl)-3-(2-hydroxy-1-(3-methoxyphenyl)ethyl)imidazolidin-2-one]",200 to 2000 nM

# Results, then the molecule that gave them:
row,IC50,SMILES
1,2.1 to 20 nM,"COc1nc(-n2ccn(Cc3cc(F)ccc3C)c2=O)ccc1-c1cn[nH]c1 [Example 382, 1-(5-fluoro-2-methylbenzyl)-3-(6-methoxy-5-(1H-pyrazol-4-yl)pyridin-2-yl)-1H-imidazol-2(3H)-one]"
2,2.1 to 20 nM,"COc1nc(-n2ccn(Cc3cc(F)cc(OCC4CC4)c3)c2=O)ccc1-c1cn[nH]c1 [Example 395, 1-(3-(cyclopropylmethoxy)-5-fluorobenzyl)-3-(6-methoxy-5-(1H-pyrazol-4-yl)pyridin-2-yl)-1H-imidazol-2(3H)-one]"
3,20.1 to 200 nM,"O=c1n(Cc2cc(F)cc(OCC3CC3)c2)ccn1-c1ccc(-c2cn[nH]c2)cc1 [Example 396, 1-(4-(1H-pyrazol-4-yl)phenyl)-3-(3-(cyclopropylmethoxy)-5-fluorobenzyl)-1H-imidazol-2(3H)-one]"
4,2.1 to 20 nM,"Cc1c(F)cccc1Cn1ccn(-c2ccc(-c3cn[nH]c3)cc2)c1=O [Example 402, 1-(4-(1H-pyrazol-4-yl)phenyl)-3-(3-fluoro-2-methylbenzyl)-1H-imidazol-2(3H)-one]"
5,20.1 to 200 nM,"O=c1n(Cc2cccc(F)c2F)ccn1-c1ccc(-c2cn[nH]c2)cc1 [Example 406, 1-(4-(1H-pyrazol-4-yl)phenyl)-3-(2,3-difluorobenzyl)-1H-imidazol-2(3H)-one]"
6,< 2 nM,"COc1nc(-n2ccn(Cc3cccc(F)c3)c2=O)ccc1-c1cn[nH]c1 [Example 413, 1-(3-fluorobenzyl)-3-(6-methoxy-5-(1H-pyrazol-4-yl)pyridin-2-yl)-1H-imidazol-2(3H)-one]"
7,2.1 to 20 nM,"COc1nc(-n2ccn(Cc3cc(F)ccc3F)c2=O)ccc1-c1cn[nH]c1 [Example 415, 1-(2,5-difluorobenzyl)-3-(6-methoxy-5-(1H-pyrazol-4-yl)pyridin-2-yl)-1H-imidazol-2(3H)-one]"
8,< 2 nM,"COc1nc(-n2ccn(Cc3cccc(OC(F)F)c3)c2=O)ccc1-c1cn[nH]c1 [Example 419, 1-(3-(difluoromethoxy)benzyl)-3-(6-methoxy-5-(1H-pyrazol-4-yl)pyridin-2-yl)-1H-imidazol-2(3H)-one]"
9,2.1 to 20 nM,"COc1ccc(F)c(CN2CCN(c3ccc(-c4cn[nH]c4)c(F)c3)C2=O)c1 [Example 426, 1-(3-fluoro-4-(1H-pyrazol-4-yl)phenyl)-3-(2-fluoro-5-methoxybenzyl)imidazolidin-2-one]"
10,20.1 to 200 nM,"COc1cccc(CN2CCN(c3ccc(-c4cn[nH]c4)cn3)C2=O)c1F [Example 427, 1-(5-(1H-pyrazol-4-yl)pyridin-2-yl)-3-(2-fluoro-3-methoxybenzyl)imidazolidin-2-one]"
11,2.1 to 20 nM,"COc1cccc(CN2CCN(c3ccc(-c4cn[nH]c4)c(F)c3)C2=O)c1 [Example 430, 1-(3-fluoro-4-(1H-pyrazol-4-yl)phenyl)-3-(3-methoxybenzyl)imidazolidin-2-one]"
12,20.1 to 200 nM,"COc1ccc(CN2CCN(c3ccc(-c4cn[nH]c4)c(F)c3)C2=O)cc1F [Example 432, 1-(3-fluoro-4-(1H-pyrazol-4-yl)phenyl)-3-(3-fluoro-4-methoxybenzyl)imidazolidin-2-one]"
13,2.1 to 20 nM,"COc1cc(CN2CCN(c3ccc(-c4cn[nH]c4)c(F)c3)C2=O)ccc1F [Example 434, 1-(4-fluoro-3-methoxybenzyl)-3-(3-fluoro-4-(1H-pyrazol-4-yl)phenyl)imidazolidin-2-one]"

# Source: patent publication US10123993B2, “Cyclic ureas as inhibitors of rock” (BRISTOL-MYERS SQUIBB COMPANY, priority 2015, dated 2018)
